Results: PubChem BioAssay (NCI)
Several values for one entry are separate records, joined by “and”; a condition that tells them apart may be missing. Equal entries are not always repeated.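 Step 1: Grow cells in 96-well plates. Step 2: Expose to compound for 48 hours at 5 concentrations. Step 3: Interpolate endpoints linearly; if unreached, use highest concentration. GI50 = concentration required for 50% inhibition of growth. TGI is the concentration that stops growth completely.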

Tests used:
Experiment in all cases: growth of human tumour cells (NCI), 48 h
A549 NSCLC = tested on: A549 NSCLC
CCRF-CEM leukemia = tested on: CCRF-CEM leukemia
HL-60(TB) leukemia = tested on: HL-60(TB) leukemia
KM12 colon = tested on: KM12 colon
M14 melanoma = tested on: M14 melanoma
MALME-3M melanoma = tested on: MALME-3M melanoma
SNB-75 CNS = tested on: SNB-75 CNS
T-47D breast = tested on: T-47D breast
U251 CNS = tested on: U251 CNS
UO-31 renal = tested on: UO-31 renal

SMILES	GI50 (A549 NSCLC) [µM]	TGI (A549 NSCLC)	GI50 (CCRF-CEM leukemia) [µM]	TGI (CCRF-CEM leukemia)	GI50 (HL-60(TB) leukemia) [µM]	TGI (HL-60(TB) leukemia)	GI50 (KM12 colon) [µM]	TGI (KM12 colon)	GI50 (M14 melanoma) [µM]	TGI (M14 melanoma)	GI50 (MALME-3M melanoma) [µM]	TGI (MALME-3M melanoma)	GI50 (SNB-75 CNS) [µM]	TGI (SNB-75 CNS)	GI50 (T-47D breast) [µM]	TGI (T-47D breast)	GI50 (U251 CNS) [µM]	TGI (U251 CNS)	GI50 (UO-31 renal) [µM]	TGI (UO-31 renal)
COc1ccc2c(c1)c(-c1ccc(-c3cn(C)c4ccc(OC)cc34)o1)cn2C	18.4	> 100 µM	6.46	78.4 µM	1.98	5.2 µM	2.73	7.08 µM	16.7	> 100 µM	52.8	> 100 µM	13.6	53.7 µM	2.72	11.4 µM	3.66	13.4 µM	3.6	15 µM
CCN(CC)CCC(=O)N1C/C(=C/c2ccccc2)C(=O)/C(=C\c2ccccc2)C1		17.1 µM		0.947 µM		1.62 µM		2.51 µM		6.63 µM		7.36 µM		12.5 µM		4.07 µM		1.9 µM		3.78 µM
CSC1SCC2C(=O)N(C)C(C(C)C)C(=O)OCC(NC(=O)c3cnc4ccccc4n3)C(=O)NC(C)C(=O)N(C)C1C(=O)N(C)C(C(C)C)C(=O)OCC(NC(=O)c1cnc3ccccc3n1)C(=O)NC(C)C(=O)N2C (configuration not stated)	< 0.001		< 0.001		< 0.001		< 0.001		< 0.001	0.00121 µM and 0.00346 µM	< 0.001				< 0.001		< 0.001		0.00328	
C=C1C(=O)O[C@H]2[C@H]1CC/C(Cn1cc(-c3ccsc3)nn1)=C\CC[C@@]1(C)O[C@@H]21	8.61	23.1 µM	1.63	12.3 µM	1.91	7 µM	6.45	19.6 µM	1.93	5.02 µM	1.61	3.34 µM	3.23	18.2 µM	2.03	5.52 µM	2.5	8 µM	1.35	3.18 µM
COc1cccc(NC(=O)c2ccc(NC3=C(Cl)C(=O)N(Cc4ccccc4)C3=O)cc2)c1	13.6	38 µM	1.67	4.35 µM	11.9	29 µM	16.9	40.3 µM	17.3	31.7 µM	16	42.1 µM			21.5	> 100 µM	7.12	19.9 µM	18.2	62.6 µM
CCCC(=O)Nc1c(I)cc(I)c(CC(CC)C(=O)O)c1I (configuration not stated)	> 100	> 100 µM	> 100	> 100 µM	> 100	> 100 µM	> 100	> 100 µM	> 100	> 100 µM	> 100	> 100 µM	> 100	> 100 µM	> 100	> 100 µM	> 100	> 100 µM	> 100	> 100 µM
C=C(C)[C@@H]1CC[C@]2(CN)CC[C@]3(C)[C@H](CC[C@@H]4[C@@]5(C)CCC(N)[C@@](C)(CO)[C@@H]5CC[C@]43C)[C@@H]12 (some centres not stated)	1.73	3.27 µM	1.71	3.65 µM	1.29	2.97 µM	1.79	3.37 µM	1.81	3.32 µM	1.86	3.38 µM	1.62	3.07 µM	1.93	3.84 µM	1.61	3.01 µM	1.6	2.96 µM
COc1ccc(C[C@H]2NC[C@H](O)[C@H]2OC(C)=O)cc1	0.0413	3.48 µM		0.863 µM				0.211 µM		0.068 µM		0.708 µM		0.0668 µM		0.754 µM		2.02 µM		0.181 µM
COC(=O)CCCNC(=O)C(=O)c1c(O)c(O)c(C(C)C)c2cc(C)c(-c3c(C)cc4c(C(C)C)c(O)c(O)c(C(=O)C(=O)NCCCC(=O)OC)c4c3O)c(O)c12	0.255	4.01 µM	0.331	> 32.5 µM	0.931	6.76 µM	0.164	4.58 µM	0.753	2.31 µM	0.902	12.9 µM	1.43	19.1 µM	0.558	3.06 µM	0.298	2.31 µM	0.558	4.05 µM
NC(N)=NC(N)=Nc1ccc(S(N)(=O)=O)cc1		> 100 µM		> 100 µM		> 100 µM		> 100 µM		> 100 µM		> 100 µM		> 100 µM		> 100 µM		> 100 µM		> 100 µM
COc1ccc(-c2cc(-c3ccc(Cl)cc3)nc(SCCCCCCC(=O)NO)n2)cc1	1.62	10.7 µM	0.861	14.4 µM	1.19	2.8 µM	2.2	13.1 µM	1.26	4.74 µM	1.14	5.5 µM	1.36	23.8 µM	1.42	> 50 µM	1.37	5.9 µM	0.758	3.05 µM
CC(C)=CCc1c(O)c(C(=O)CC(C)C)c(O)c2c(-c3ccccc3)cc(=O)oc12	12	> 50 µM	5.11	> 50 µM	7.82	27.7 µM	12	> 50 µM	11.5	> 50 µM	10.8	33.9 µM	9.27	41.9 µM	11.3	42.1 µM	9.59	> 50 µM	8.85	> 50 µM
Clc1ccc(COC(Cn2ccnc2)c2ccc(Cl)cc2Cl)c(Cl)c1 (configuration not stated)	3.87	15.5 µM and 23.8 µM and 23.2 µM	4.55	21.2 µM and 24.8 µM and 19.8 µM	2.34	6.21 µM and 17 µM and 7.02 µM	4.36	15.5 µM and 26.4 µM and 28.8 µM	3.73	14.1 µM and 26.6 µM and 22.4 µM	4.52	17.1 µM and 29.6 µM and 25.1 µM		12.6 µM and 28.8 µM and 16.2 µM	2	8.33 µM and 24.6 µM and 21.6 µM	3.57	16.1 µM and 25.8 µM and 23.6 µM	2.3	12.4 µM and 16.5 µM and 13.6 µM
